The values that follow come from US20060110370A1, “Treatments for reduction of cytotoxicity and viral contamination of implantable medical devices” (priority 2004, published 2006).

Assay [1] concerns Amphotropic Murine Leukemia Virus (A-MuLV). Description: Viral inactivation of spiked porcine valve and pericardium, A-MuLV. The format is cell-based. The note with it: 0.2% glutaraldehyde at 47 days; average for porcine valve and pericardium material.
Assay [2] concerns Influenza A Virus (Inf A). Briefly: Viral inactivation of spiked porcine valve and pericardium, Inf A. The format is cell-based. The note with it: 0.2% glutaraldehyde at 47 days; average for porcine valve and pericardium material.
A further assay concerns Porcine Parvovirus (PPV). Description: Viral inactivation of spiked porcine valve and pericardium, PPV. The conditions noted are these: 0.2% glutaraldehyde at 47 days; average for porcine valve and pericardium material. The format is cell-based.
The test system of another assay is Pseudorabies Virus (PrV). It is filed as cell-based. The note with it: 0.2% glutaraldehyde at 47 days; average for porcine valve and pericardium material.
The next assay has as its system Reovirus Type 3 (REO-3). Briefly: Viral inactivation of spiked porcine valve and pericardium, REO-3. The format is cell-based. The note with it: 0.2% glutaraldehyde at 47 days; average for porcine valve and pericardium material.
The subject of assay [3] is five viruses (A-MuLV, Inf A, PPV, PrV, REO-3). Briefly: Viral inactivation, panel of five viruses (remaining virus). The conditions noted are these: after 47 days of exposure. It is filed as cell-based.
Assay [4] in a line: Calcification after subcutaneous implantation in rats (Examples 2 and 3), bovine pericardium. It is filed as in vivo, Sprague-Dawley rats. The note with it: retrieved after 60 days of implantation, about 16 hours treatment. Here is the method:
In a class 100 laminar flow bench, pieces of glutaraldehyde-fixed bovine pericardium tissue (Mitroflow Inc.; Richmond, British Columbia, Canada) porcine cusp tissue (Labcor; Belo Horizonte, Brazil) and porcine wall tissue (Labcor Inc.) were transferred into sterile tubes containing 1,2-octanediol solutions (5% 1,2-octanediol (Aldrich Chemical), 40% ethanol and 55% 10 mM HEPES buffer). The tubes were transferred to a 37° C. incubator and maintained at 37° C. with gentle agitation for about 16 hours. After the treatment, the samples were transferred to solutions comprising 22% ethanol in 10 mM HEPES and stored for 14 days at 4° C. The final tissue to volume ratio for all treatments was approximately 27 ml/g. For N-methyl pyrolidinone (NMP) treatments, pieces of glutaraldehyde-fixed bovine pericardium tissue (Mitroflow Inc.), porcine cusp tissue (Labcor Inc.) and porcine wall tissue (Labcor Inc.) were transferred into sterile tubes containing NMP. The tubes were incubated at room temperature for about 16 hours with occasional manual agitation. […] Seven rats per treatment group were analyzed. […] After retrieval, the samples were analyzed for their calcium and phosphorus contents using a standard ICP methodology. […] Seven rats per treatment group were analyzed. […] After retrieval, the samples were analyzed for their calcium and phosphorus contents by ICP.

Assay [5] is described as follows: Calcification after subcutaneous implantation in rats (Example 2), porcine cusp. It is filed as in vivo, Sprague-Dawley rats. The conditions noted are these: retrieved after 60 days of implantation, about 16 hours treatment. Here is the method:
(§1) In a class 100 laminar flow bench, pieces of glutaraldehyde-fixed bovine pericardium tissue (Mitroflow Inc.; Richmond, British Columbia, Canada) porcine cusp tissue (Labcor; Belo Horizonte, Brazil) and porcine wall tissue (Labcor Inc.) were transferred into sterile tubes containing 1,2-octanediol solutions (5% 1,2-octanediol (Aldrich Chemical), 40% ethanol and 55% 10 mM HEPES buffer). The tubes were transferred to a 37° C. incubator and maintained at 37° C. with gentle agitation for about 16 hours. After the treatment, the samples were transferred to solutions comprising 22% ethanol in 10 mM HEPES and stored for 14 days at 4° C. The final tissue to volume ratio for all treatments was approximately 27 ml/g. For N-methyl pyrolidinone (NMP) treatments, pieces of glutaraldehyde-fixed bovine pericardium tissue (Mitroflow Inc.), porcine cusp tissue (Labcor Inc.) and porcine wall tissue (Labcor Inc.) were transferred into sterile tubes containing NMP. The tubes were incubated at room temperature for about 16 hours with occasional manual agitation. After the treatment, the tissue samples were transferred to 22% HEPES-buffered ethanol solutions and stored for 14 days at 4° C. […] Seven rats per treatment group were analyzed. […] After retrieval, the samples were analyzed for their calcium and phosphorus contents using a standard ICP methodology.

Assay [6] is described as follows: Calcification after subcutaneous implantation in rats (Example 2), porcine wall. It is filed as in vivo, Sprague-Dawley rats. The conditions noted are these: retrieved after 60 days of implantation, about 16 hours treatment. Here is the method: as §1

With `O=CCCCC=O` [Glutaraldehyde, glutaraldehyde], in [1], the “Viral log reduction, A-MuLV” value stood at 4.15 log. Besides, in [2], the “Viral log reduction, Inf A” value is recorded as 3.5 log. Also, the “Viral log reduction, PPV” value with Porcine Parvovirus (PPV) came to 5.03 log. Further, in the assay with Pseudorabies Virus (PrV), the “Viral log reduction, PrV” value is on record as 5.51 log. For the same molecule, the “Viral log reduction, REO-3” value with Reovirus Type 3 (REO-3) amounted to 5.00 log. Also, the “viruses present on porcine valves or pericardium materials” value in [3] is given as “No viruses were present”.
Consider `CN1CCCC1=O` [NMP, N-methyl pyrolidinone], for which the figures for the “Calcuim (μg/mg tissue)” value in [4], in assay [5] and in assay [6] were 8.0 μg/mg tissue, 14.7 μg/mg tissue and 111.9 μg/mg tissue, respectively. In addition, the “Phosphorus (μg/mg tissue)” value amounted to 3.4 μg/mg tissue in assay [4], 7.9 μg/mg tissue in assay [5] and 55.2 μg/mg tissue in assay [6].
